In patent publication US8461358B2, “Fluorescent probe for measuring protease” (The University of Tokyo, priority 2009, dated 2013):

Molecular target: T1, leucine aminopeptidase, LAP (Sus scrofa, UniProt P15145)
T1 construct: purchased SIGMA L5006-25UN; host or cells: porcine kidney (tissue-derived)
T1 sequence (P15145 1-963): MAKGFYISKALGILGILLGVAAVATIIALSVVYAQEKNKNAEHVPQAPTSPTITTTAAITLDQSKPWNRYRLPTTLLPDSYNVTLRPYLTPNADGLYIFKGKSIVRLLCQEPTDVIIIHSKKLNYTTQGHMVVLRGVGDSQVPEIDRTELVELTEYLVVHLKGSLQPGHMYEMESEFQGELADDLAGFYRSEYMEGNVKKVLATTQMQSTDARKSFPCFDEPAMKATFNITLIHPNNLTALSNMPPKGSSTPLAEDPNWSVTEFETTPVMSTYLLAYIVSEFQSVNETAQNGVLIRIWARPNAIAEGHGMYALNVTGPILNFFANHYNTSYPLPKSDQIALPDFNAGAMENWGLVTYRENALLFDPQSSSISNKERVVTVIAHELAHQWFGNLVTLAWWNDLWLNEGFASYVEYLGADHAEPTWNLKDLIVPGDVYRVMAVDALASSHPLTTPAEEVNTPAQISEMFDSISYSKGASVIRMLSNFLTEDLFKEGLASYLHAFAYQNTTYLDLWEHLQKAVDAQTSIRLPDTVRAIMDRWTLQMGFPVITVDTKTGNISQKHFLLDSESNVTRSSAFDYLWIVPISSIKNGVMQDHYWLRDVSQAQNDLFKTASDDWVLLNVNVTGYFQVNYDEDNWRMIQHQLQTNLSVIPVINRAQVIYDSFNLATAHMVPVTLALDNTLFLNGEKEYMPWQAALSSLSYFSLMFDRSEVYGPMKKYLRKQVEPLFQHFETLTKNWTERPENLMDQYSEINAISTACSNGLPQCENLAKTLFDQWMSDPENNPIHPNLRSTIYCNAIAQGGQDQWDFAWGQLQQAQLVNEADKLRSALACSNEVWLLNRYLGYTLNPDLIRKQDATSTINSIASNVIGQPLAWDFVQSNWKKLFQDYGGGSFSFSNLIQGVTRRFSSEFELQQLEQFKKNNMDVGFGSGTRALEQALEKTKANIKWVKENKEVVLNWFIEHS
Experiment: Enzymatic reaction of probe with leucine aminopeptidase, fluorescence/absorption readout
Assay type: biochemical, porcine
Details: 5 μM compound
Description: Compound (2) (Leu-RhoHM) and Compound (3) (γGlu-RhoHM) formed by bonding acyl residues derived from leucine and glutamic acid to one amino group of Compound (1) (RhoHM), respectively, were each dissolved in a neutral phosphate buffer, and reacted with a protease (leucine aminopeptidase, LAP, porcine kidney, SIGMA L5006-25UN) and γ-glutamyl transpeptidase (GGT, equine kidney, SIGMA G9270-100UN). Specifically, 3 μL of a […] solution of each compound in dimethyl sulfoxide (DMSO) was dissolved in 3 mL of a 0.1 M sodium phosphate buffer (pH 7.4) at a final concentration of 5 μM, and each of LAP (0.15 U) and GGT (1.1 U) was added to the solution to allow an enzymatic reaction at 37° C. The excitation wavelength was 501 nm.
Further, each of the DMSO solutions of both compounds (5 mM) in a volume of 3 μL was dissolved in 3 mL of a 0.1 M sodium phosphate buffer (pH 7.4) at a final concentration of 5 μM, and the enzymatic reaction was performed at 37° C. The values of fluorescence intensity observed with each amount of the enzymes 1 minute (Leu-RhoHM) or 9 minutes (γGlu-RhoHM) after the addition of the enzyme were plotted. The excitation wavelength was 501 nm, and the fluorescence emission wavelength was 524 nm.
Enzyme specificity of Compounds (2) and (3) was examined. Each of the DMSO solutions (3 μL) was dissolved in 3 mL of a 0.1 M sodium phosphate buffer (pH 7.4) at a final concentration of 5 μM, and LAP (0.4 U) was added to the solution to perform the enzymatic reaction at 37° C.

CC(C)C[C@H](N)C(=O)Nc1ccc2c(c1)Oc1cc(N)ccc1C21OCc2ccccc21 (stereo partly drawn) [Compound (2)]
change of absorption and fluorescence intensity on reaction with LAP (0.1 M sodium phosphate buffer pH 7.4, LAP 0.15 U, 37° C., excitation 501 nm): prompt marked increase of absorption and fluorescence intensity | change of fluorescence intensity after reaction with LAP (enzyme specificity) (0.1 M sodium phosphate buffer pH 7.4, LAP 0.4 U, 37° C.): marked increase of fluorescence intensity | fluorescence intensity versus added LAP amount (pH 7.4, 37° C., 1 minute after addition of the enzyme, excitation 501 nm, emission 524 nm): linear increase of fluorescence intensity
